Here are results for 21 compounds from US5977106A, “3,5-dioxo-(2H,4H)-1,2,4-triazine derivatives” (Pierre Fabre Medicament, priority 1994, dated 1999).

Structures can show the parent of a compound that is named as a salt. Where two headings read alike, the source gives them in different places.

The term ED50 denotes the midpoint of the dose-response relation.

The target in test [1] is T1, 5-HT1A receptor (Rattus norvegicus, UniProt P19327).
T1 sequence (P19327 1-422): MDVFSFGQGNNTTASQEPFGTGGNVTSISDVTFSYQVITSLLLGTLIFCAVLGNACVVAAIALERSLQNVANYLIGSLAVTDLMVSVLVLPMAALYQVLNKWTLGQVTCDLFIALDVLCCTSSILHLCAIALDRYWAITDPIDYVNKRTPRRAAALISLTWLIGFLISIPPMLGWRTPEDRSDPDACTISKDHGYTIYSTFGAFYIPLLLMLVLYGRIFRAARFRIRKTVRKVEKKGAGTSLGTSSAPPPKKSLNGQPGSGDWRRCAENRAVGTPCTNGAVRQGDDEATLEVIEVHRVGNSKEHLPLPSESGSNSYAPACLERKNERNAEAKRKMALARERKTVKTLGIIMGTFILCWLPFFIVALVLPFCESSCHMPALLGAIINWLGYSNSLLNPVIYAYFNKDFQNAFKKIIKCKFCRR
Put plainly: biochemical. In kind it is binding. The conditions noted are these: rat cerebral cortex, [^3 H]8-OH-DPAT 0.2 nM, 23° C., 30 minutes, mean of 3 to 5 experiments; for Ki: read-out: pKi (Affinity for the 5-HT1A receptor) (converted).

The target in test [2] is T2, 5-HT1A type serotoninergic receptors (Rattus norvegicus, UniProt P19327).
T2 construct: carried out in male rats (Sprague Dawley); from tissue; host or cells: living male Sprague Dawley rats (whole animal)
T2 sequence (P19327 1-422): T1 sequence (P19327 1-422)
Kind of test: 5-HT syndrome in rats (FBP, LLR, FPT). The format is in vivo. The conditions noted are these: ip, male Sprague Dawley rats. The procedure: The central activity of the compounds of the invention was evaluated for their capacity to cause the 5-HT syndrome, which is characterized by reciprocal fore-paw treading (FPT), lower-lip retraction (LLR) and flat body posture (FBP).
The experiments for the evaluation of the 5-HT syndrome are carried out in male rats (Sprague Dawley) according to the method described by F.C COLPAERT et al (Drug Dev. Res., 26, 21-48; 1992).

[3] abbreviates: FPT, read-out: ED50 reciprocal fore-paw treading (FPT), 5-HT syndrome.
[4] abbreviates: FBP, read-out: ED50 flat body posture (FBP), 5-HT syndrome.
The mark [5] stands for this setting: LLR, read-out: ED50 lower-lip retraction (LLR), 5-HT syndrome.

For the compound “4-methyl-2-(4-(2,3-dihydro-1,4-dioxino-[2,3-b]-pyridin-2-ylmethylamino)butyl)-3,5-dioxo-(2H,4H)-1,2,4-triazine fumarate [Compound 16]”, the “pKi (Affinity for the 5-HT1A receptor)” value in test [1] came to 9.36.
Take “4-methyl-2-(4-(4-(4,6-dimethyl-2-pyrimidinyl)piperazino)butyl)-3,5-dioxo-(2H,4H)-1,2,4-triazine [Compound 27]”: the “pKi (Affinity for the 5-HT1A receptor)” value in test [1] amounted to 9.23.
As for `O=C1CC2(CCCC2)CC(=O)N1CCCCN1CCN(c2ncccn2)CC1` [Buspirone, reference compound], the median effective dose (ED50) in test [2] (setting [3]) was more than 40 mg/kg.
Consider `O=c1cnn(CCCCN2CCN(c3cccc(C(F)(F)F)c3)CC2)c(=O)[nH]1` [Compound 1, 2-[4-(4-(3-trifluoromethylphenyl)piperazino)butyl]-3,5-dioxo-(2H,4H)-1,2,4-triazine hydrochloride], for which, in test [1], the Ki is 0.55 nM.
Regarding `Cl.Cn1c(=O)cnn(CCCCN2CCN(c3cccc(C(F)(F)F)c3)CC2)c1=O` [Compound 3, 4-methyl-2-(4-(4-(3-trifluoromethylphenyl)piperazino)butyl)-3,5-dioxo-(2H,4H)-1,2,4-triazine hydrochloride], the ED50 in test [2] (setting [4]) amounted to 0.31 mg/kg; in test [2] (setting [3]), 0.31 mg/kg; in test [2] (setting [5]), 0.08 mg/kg. Also, in test [1], the Ki was 0.24 nM.
For `Cn1c(=O)cnn(CCCCN2CCN(c3cccc(Cl)c3)CC2)c1=O` [Compound 4, 4-methyl-2-(4-(4-(3-chlorophenyl)piperazino)butyl)-3,5-dioxo-(2H,4H)-1,2,4-triazine], in test [1], the Ki was 0.269 nM.
With `Cn1c(=O)cnn(CCCCN2CCN(c3ncccn3)CC2)c1=O` [Compound 9, 4-methyl-2-(4-(4-pyrimidinyl-2)piperazino)butyl-3,5-dioxo-(2H,4H)-1,2,4-triazine], the ED50 turned out to be 0.08 mg/kg in test [2] (setting [4]), 0.31 mg/kg in test [2] (setting [3]) and 0.08 mg/kg in test [2] (setting [5]). The Ki in test [1] is 4.57 nM.
As for `COc1ccc2cccc(N3CCN(CCCCn4ncc(=O)n(C)c4=O)CC3)c2c1` [Compound 10, 4-methyl-2-(4-(4-(7-methoxynaphthalene-1-yl)piperazino)butyl-3,5-dioxo-(2H,4H)-1,2,4-triazine fumarate], the ED50 in test [2] (setting [4]) stood at 0.02 mg/kg; in test [2] (setting [3]), 0.02 mg/kg; in test [2] (setting [5]) it was 0.005 mg/kg. Also, in test [1], the Ki is 0.0324 nM.
With `COc1ccccc1N1CCN(CCCCn2ncc(=O)n(C)c2=O)CC1` [Compound 11], the Ki in test [1] is 0.132 nM.
For the compound `Cc1nn(CCCCN2CCN(c3cccc(C(F)(F)F)c3)CC2)c(=O)[nH]c1=O` [Compound 12, 6-methyl-2-(4-(4-(3-trifluoromethylphenyl)piperazino)butyl)-3,5-dioxo-(2H,4H)-1,2,4-triazine], the Ki in test [1] is 6.46 nM.
Take `Cc1nn(CCCCN2CCN(c3cccc(C(F)(F)F)c3)CC2)c(=O)n(C)c1=O` [Compound 13, 4,6-dimethyl-2-(4-(4-(3-trifluoromethylphenyl)piperazino)butyl-3,5-dioxo-(2H,4H)-1,2,4-triazine hydrochloride]: in test [1], the Ki is 2.63 nM.
`Cn1c(=O)cnn(CCCCNCC2COc3ccccc3O2)c1=O` (stereo not drawn) [Compound 14, 4-methyl-2-(4-(1,4-benzodioxane-2-ylmethylamino)butyl)-3,5-dioxo-(2H,4H)-1,2,4-triazine]: the Ki in test [1] was 0.269 nM.
On to `CN(CCCCn1ncc(=O)n(C)c1=O)CC1COc2ccccc2O1` (stereo not drawn) [Compound 15, 4-methyl-2-(4-(N-methyl, 1,4-benzodioxan-2-ylmethylamino)butyl)-3,5-dioxo-(2H,4H)-1,2,4-triazine fumarate], for which the Ki in test [1] is 2.82 nM.
In the case of `Cn1c(=O)cnn(CCCCN2CCN(c3ccc(Cl)c(Cl)c3)CC2)c1=O` [Compound 21, 4-methyl-2-(4-(4-(3,4-dichloro-phenyl)piperazino)butyl)-3,5-dioxo-(2H,4H)-1,2,4-triazine], in test [1], the Ki is 2.63 nM.
Consider `Cn1c(=O)cnn(CCCCN2CCN(c3cccc(Cl)c3Cl)CC2)c1=O` [Compound 22, 4-methyl-2-(4-(4-(2,3-dichloro-phenyl)piperazino)butyl)-3,5-dioxo-(2H,4H)-1,2,4-triazine], for which the Ki in test [1] was 0.316 nM.
Turning to `Cn1c(=O)cnn(CCCCN2CCN(c3cc(Cl)cc(Cl)c3)CC2)c1=O` [Compound 23, 4-methyl-2-(4-(4-(3,5-dichloro-phenyl)piperazino)butyl)-3,5-dioxo-(2H,4H)-1,2,4-triazine], the Ki in test [1] was 0.912 nM.
With `Cn1c(=O)cnn(CCCCN2CCN(c3nccc(Cl)n3)CC2)c1=O` [Compound 24], the Ki in test [1] was 0.794 nM.
Regarding `Cc1ccnc(N2CCN(CCCCn3ncc(=O)n(C)c3=O)CC2)n1` [Compound 25], the Ki in test [1] was 0.724 nM.
In the case of `Cc1cc(C)nc(N2CCN(CCCCn3ncc(=O)n(C)c3=O)CC2)n1` [Compound 26, 4-methyl-2-(4-(4-(4,6-dimethyl-2-pyrimidinyl)piperazino)butyl)-3,5-dioxo-(2H,4H)-1,2,4-triazine], the Ki in test [1] is 0.646 nM.
On to `COc1ccnc(N2CCN(CCCCn3ncc(=O)n(C)c3=O)CC2)n1` [Compound 28, 4-methyl-2-(4-(4-(4-methoxy-2-pyrimidinyl)piperazino)butyl)-3,5-dioxo-(2H,4H)-1,2,4-triazine], for which, in test [1], the Ki was 0.851 nM.
`Cn1c(=O)cnn(CCCCN2CCN(c3ncccn3)CC2)c1=O` [Compound 30, 4-methyl-2-(4-(4-(2-pyrimidinyl)piperazino)butyl)-3,5-dioxo-(2H,4H)-1,2,4-triazine fumarate]: the Ki in test [1] was 3.31 nM.
